According to patent US8426447B2, “Spiro-tricyclic ring compounds as beta-secretase modulators and methods of use” (Amgen Inc., priority 2008, dated 2013):

How the values were obtained:
[1] = target: T1, BACE1 (Homo sapiens, UniProt P56817); experiment: In Vitro BACE Cell-based Assay (HEK cell assay): Aβ40 in conditioned medium of cells stably expressing Amyloid Precursor Protein, sandwich ELISA
In short: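 Read-out is time-resolved fluorescence of Aβ40 in supernatant, captured by pAb40 and detected with biotinylated 6E10 plus Streptavidin-Europium. Cells stably expressing APP received compounds for 24 h over 10 concentrations starting at 100 μM or 10 μM, final DMSO 0.1%.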

[2] = target: T1, BACE1; experiment: In Vitro Enzymatic BACE FRET (Fluorescence Resonance Energy Transfer) Assay; assay type: biochemical
In short: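 Fluorescence read-out after Tris addition raises pH to neutrality and ends the reaction. Before that, a peptide substrate carrying fluorophore and quencher across the BACE cleavage site (50 nM) is incubated with enzyme for one hour at pH 4.2 in acetate containing 10% DMSO and sub-micellar genapol.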

[3] = HEK cell-based assay, Aβ40 in conditioned medium, IC50 class symbols, read-out: HEK cell assay
[4] = in vitro BACE FRET enzyme assay, IC50 class symbols, read-out: BACE1 FRET assay
[5] = Table IV, class symbols, read-out: HEK cell assay
[6] = Table IV, class symbols, read-out: BACE1 FRET assay
[7] = HEK cells, read-out: HEK cell assay
[8] = Table II, Aβ40, 24 h incubation, read-out: HEK cell assay
[9] = Table II, read-out: BACE1 FRET assay

T1 sequence (P56817 46-501, species assumed): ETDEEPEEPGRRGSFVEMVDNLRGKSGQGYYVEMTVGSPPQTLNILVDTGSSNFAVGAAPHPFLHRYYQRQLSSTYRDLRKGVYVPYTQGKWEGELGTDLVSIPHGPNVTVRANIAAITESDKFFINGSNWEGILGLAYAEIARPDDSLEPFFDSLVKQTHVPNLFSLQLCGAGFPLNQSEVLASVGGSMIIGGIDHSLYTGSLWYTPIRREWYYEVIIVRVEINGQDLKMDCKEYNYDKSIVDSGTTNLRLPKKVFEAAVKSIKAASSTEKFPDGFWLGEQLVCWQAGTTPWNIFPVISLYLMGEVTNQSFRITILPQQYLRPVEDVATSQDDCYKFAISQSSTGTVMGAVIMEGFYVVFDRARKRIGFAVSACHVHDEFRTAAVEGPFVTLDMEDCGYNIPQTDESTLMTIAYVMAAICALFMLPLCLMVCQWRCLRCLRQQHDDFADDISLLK

| SMILES | IC50 ([2]; read-out: BACE1 FRET assay) | IC50 [1, 5] | IC50 [2, 6] | other results |
| --- | --- | --- | --- | --- |
| CCOC1CN(c2ccc3c(c2)[C@]2(COC(N)=N2)c2cc(-c4cccnc4)ccc2O3)C1 [compound 415] |  |  |  | IC50 [1, 3]: < 0.1 µM; IC50 [2, 4]: < 0.1 µM |
| CC(C)(C)OC(=O)N1CC=C(c2ccc3c(c2)[C@]2(COC(N)=N2)c2cc(-c4cncnc4)ccc2O3)CC1 [compound 968] | < 0.1 µM |  |  | IC50 ([1]; read-out: HEK cell assay): 0.1 to 1 µM |
| Cc1cc(-c2cc3c(cn2)Oc2ccc(-c4cccnc4F)cc2[C@@]32COC(N)=N2)ccn1 [compound 429] |  |  |  | IC50 ([1]; HEK cell assay (uM), HEK cells): < 0.1 µM; IC50 ([2]; BACE1 FRET assay (uM)): < 0.1 µM |
| CC(C)(O)C#Cc1cnc2c(c1)[C@@]1(COC(N)=N1)c1cc(C#CC3CC3)ccc1O2 [compound 705] | > 5 µM |  |  | IC50 ([1]; read-out: HEK cell assay): > 5 µM |
| NC1=N[C@@]2(CO1)c1cc(-c3cccnc3)ccc1Oc1c(F)cccc12 [compound 592] |  | 0.1 to 1 µM | < 0.1 µM |  |
| CC(C)(C)CCc1cnc2c(c1)[C@]1(COC(N)=N1)c1cc(-c3cncnc3)ccc1O2 [compound 472] | < 0.1 µM |  |  | IC50 [1, 7]: < 0.1 µM |
| NC1=N[C@]2(CO1)c1ccncc1Oc1ccc(-c3cccnc3)cc12 [compound 675] | 0.1 to 1 µM |  |  | IC50 ([1]; read-out: HEK cell assay): 1 to 5 µM |
| CC(C)(C)COc1ccc2c(c1)[C@]1(COC(N)=N1)c1cc(C(=O)NC3CC3)ccc1O2 [compound 798] |  | < 0.1 µM | < 0.1 µM |  |
| CN(C)CCOc1ccc2c(c1)[C@]1(COC(N)=N1)c1cc(-c3cccnc3)ccc1O2 [compound 886] |  | < 0.1 µM | 0.1 to 1 µM |  |
| CC(C)(C)COc1ccc2c(c1)[C@]1(COC(N)=N1)c1cc(-c3cc(Cl)ccc3F)cnc1O2 [Example 69, (5R)-3-(5-chloro-2-fluorophenyl)-7-(2,2-dimethylpropoxy)spiro[chromeno[2,3-b]pyridine-5,4′-[1,3]oxazol]-2′-amine] |  |  |  | IC50 [1, 8]: 1 to 5 µM; IC50 [2, 9]: < 0.1 µM |
| COC(C)(C)C#Cc1cnc2c(c1)[C@@]1(COC(N)=N1)c1cc(-c3cccnc3)ccc1O2 [compound 719] | 0.1 to 1 µM |  |  | IC50 ([1]; read-out: HEK cell assay): 0.1 to 1 µM |
| NC1=N[C@@]2(CO1)c1cc(-c3cccnc3)ccc1Oc1ccc(-c3cncnc3)cc12 [compound 225] |  |  |  | IC50 ([1]; Table III, IC50's in uM ranges, read-out: HEK cell assay): < 0.1 µM; IC50 ([2]; Table III, IC50's in uM ranges, read-out: BACE1 FRET assay): < 0.1 µM |
| NC1=N[C@]2(CO1)c1cc(C#CC3(O)COC3)ccc1Oc1ccc(-c3cccnc3)cc12 [compound 685] | < 0.1 µM |  |  | IC50 ([1]; read-out: HEK cell assay): < 0.1 µM |
| Cc1ccccc1-c1ccc2c(c1)[C@]1(COC(N)=N1)c1cccnc1O2 [compound 609] |  | > 5 µM | > 5 µM |  |
| CC(C)(C)COc1ccc2c(c1)[C@@]1(COC(N)=N1)c1cc(-c3cccnc3)cnc1O2 [Example 93, (5S)-7-(2,2-dimethylpropoxy)-3-(3-pyridinyl)spiro[chromeno[2,3-b]pyridine-5,4′-[1,3]oxazol]-2′-amine] |  |  |  | IC50 [1, 8]: 0.1 to 1 µM; IC50 [2, 9]: 0.1 to 1 µM |
| NC1=N[C@@]2(CO1)c1cc(Oc3ccccn3)ccc1Oc1ncc(Br)cc12 [compound 936] | > 5 µM |  |  | IC50 ([1]; read-out: HEK cell assay): > 5 µM |
| COc1ccc2c(c1)[C@]1(COC(N)=N1)c1cc(NC(=O)[C@H](C)OC)ccc1O2 [compound 535] |  | 1 to 5 µM | 1 to 5 µM |  |
| CC(=O)c1ccc(-c2ccc3c(c2)[C@]2(COC(N)=N2)c2cc(-c4cncnc4)ccc2O3)cc1 [compound 888] |  | < 0.1 µM | < 0.1 µM |  |
| NC1=N[C@@]2(CO1)c1cc(-c3cccnc3)ccc1Oc1cnc(N3CCCCC3)cc12 [compound 445] | < 0.1 µM |  |  | IC50 [1, 7]: < 0.1 µM |
| NC1=N[C@]2(CO1)c1ccccc1Oc1ccc(-c3cc4ccccc4[nH]3)cc12 [compound 567] |  | > 5 µM | 1 to 5 µM |  |
| NC1=N[C@@]2(CO1)c1cc(-c3cccnc3F)ccc1Oc1ccc(-c3ccnc(F)c3)nc12 [compound 399] |  |  |  | IC50 [1, 3]: 0.1 to 1 µM; IC50 [2, 4]: < 0.1 µM |
| CC1(C)CN(c2cnc3c(c2)[C@]2(COC(N)=N2)c2cc(-c4cc(F)ccc4F)ccc2O3)CCO1 [compound 468] | < 0.1 µM |  |  | IC50 [1, 7]: < 0.1 µM |
